Where two headings read alike, the source gives them in different places.
Legend:
in vivo = conditions: mouse
COLI [1] = assay: Inhibiting minimum concentration (I.M.C.), activity relative to trimethoprime, OXOIDE COLI MEDIUM 4; assay type: cell-based; conditions: for % activity with respect to the base: ratio of I.M.C. to trimethoprime; for % activity with respect to the base corrected by molecular weight: ratio to trimethoprime
Experimental: (§1) The antibacterial activity of the derivatives according to the invention were tested in vitro by determining the inhibiting minimum concentrations (I.M.C.) on different germs.

COLI [2] = assay: Inhibiting minimum concentration (I.M.C.), activity relative to trimethoprime, MULLER HINTON COLI MEDIUM 4; assay type: cell-based; conditions: for % activity with respect to the base: ratio of I.M.C. to trimethoprime; for % activity to the base corrected by molecular weight: ratio to trimethoprime
Experimental: as §1

BACIL PUMILUS = assay: Inhibiting minimum concentration (I.M.C.), activity relative to trimethoprime, MULLER HINTON BACIL PUMILUS MEDIUM; assay type: cell-based; conditions: for % activity with respect to the base: ratio of I.M.C. to trimethoprime; for % activity with respect to the base corrected by molecular weight: ratio to trimethoprime
Experimental: as §1

COc1ccccc1C(Nc1ncc(Cc2cc(OC)c(OC)c(OC)c2)c(N)n1)S(=O)(=O)O (stereo not shown) [Example 15, N2 (2-Methoxy Phenyl) Methane Sulfonic Acid of 2,4-Diamino 5-(3,4,5-Trimethoxy Benzyl) Pyrimidine]
LD50 (in vivo; iv, read-out: LD 50 I.V.): 1000 mg/kg | LD50 (in vivo; po, read-out: LD 50 by mouth): > 12000 mg/kg | % activity with respect to the base (COLI [1]): 64% | % activity with respect to the base corrected by molecular weight (COLI [1]): 107% | % activity with respect to the base (COLI [2]): 47% | % activity to the base corrected by molecular weight (COLI [2]): 73% | % activity with respect to the base (BACIL PUMILUS): 60% | % activity with respect to the base corrected by molecular weight (BACIL PUMILUS): 106%

COc1cc(Cc2cnc(NC(c3cccc(Cl)c3)S(=O)(=O)O)nc2N)cc(OC)c1OC (stereo not shown) [Example 10, N2 (3-Chloro Phenyl) Methane Sulfonic Acid of 2,4-Diamino 5-(3,4,5-Trimethoxy Benzyl) Pyrimidine]
% activity with respect to the base (COLI [1]): 14.1% | % activity with respect to the base corrected by molecular weight (COLI [1]): 25% | % activity with respect to the base (COLI [2]): 11.6% | % activity to the base corrected by molecular weight (COLI [2]): 20% | % activity with respect to the base (BACIL PUMILUS): 10.4% | % activity with respect to the base corrected by molecular weight (BACIL PUMILUS): 18%

COc1cc(Cc2cnc(NC(c3cccs3)S(=O)(=O)O)nc2N)cc(OC)c1OC (stereo not shown) [Example 20, N2 (2-Thienyl) Methane Sulfonic Acid of 2,4-Diamino 5-(3,4,5-Trimethoxy Benzyl) Pyrimidine]
% activity with respect to the base (COLI [1]): 62.6% | % activity with respect to the base corrected by molecular weight (COLI [1]): 105% | % activity with respect to the base (COLI [2]): 73.5% | % activity to the base corrected by molecular weight (COLI [2]): 123% | % activity with respect to the base (BACIL PUMILUS): 83.4% | % activity with respect to the base corrected by molecular weight (BACIL PUMILUS): 140%

COc1cccc(C(Nc2ncc(Cc3cc(OC)c(OC)c(OC)c3)c(N)n2)S(=O)(=O)O)c1 (stereo not shown) [Example 16, N2 (3-Methoxy Phenyl) Methane Sulfonic Acid 2,4-Diamino 5-(3,4,5-Trimethoxy Benzyl) Pyrimidine]
% activity with respect to the base (COLI [1]): 13.2% | % activity with respect to the base corrected by molecular weight (COLI [1]): 23% | % activity with respect to the base (COLI [2]): 16.8% | % activity to the base corrected by molecular weight (COLI [2]): 29% | % activity with respect to the base (BACIL PUMILUS): 10.7% | % activity with respect to the base corrected by molecular weight (BACIL PUMILUS): 19%

COc1cc(Cc2cnc(NC(c3ccc([N+](=O)[O-])cc3)S(=O)(=O)O)nc2N)cc(OC)c1OC (stereo not shown) [Example 12, N2 (4-Nitro Phenyl) Methane Sulfonic Acid of 2,4-Diamino 5-(3,4,5-Trimethoxy Benzyl) Pyrimidine]
% activity with respect to the base (COLI [1]): 11.7% | % activity with respect to the base corrected by molecular weight (COLI [1]): 21% | % activity with respect to the base (COLI [2]): 18.1% | % activity to the base corrected by molecular weight (COLI [2]): 32% | % activity with respect to the base (BACIL PUMILUS): 11.9% | % activity with respect to the base corrected by molecular weight (BACIL PUMILUS): 22%

COc1cc(Cc2cnc(NC(c3ccco3)S(=O)(=O)O)nc2N)cc(OC)c1OC (stereo not shown) [Example 19]
LD50 (in vivo; iv, read-out: LD 50 I.V.): 900 mg/kg | LD50 (in vivo; po, read-out: LD 50 by mouth): > 12500 mg/kg | % activity with respect to the base (COLI [1]): 58.4% | % activity with respect to the base corrected by molecular weight (COLI [1]): 95% | % activity with respect to the base (COLI [2]): 69.4% | % activity to the base corrected by molecular weight (COLI [2]): 112% | % activity with respect to the base (BACIL PUMILUS): 49.5% | % activity with respect to the base corrected by molecular weight (BACIL PUMILUS): 80%

COc1cc(Cc2cnc(NC(c3ccccc3Cl)S(=O)(=O)O)nc2N)cc(OC)c1OC (stereo not shown) [Example 9, N2 (2-Chloro Phenyl) Methane Sulfonic Acid of 2,4-Diamino 5-(3,4,5-Trimethoxy Benzyl) Pyrimidine]
% activity with respect to the base (COLI [1]): 14.7% | % activity with respect to the base corrected by molecular weight (COLI [1]): 26% | % activity with respect to the base (COLI [2]): 13.3% | % activity to the base corrected by molecular weight (COLI [2]): 23% | % activity with respect to the base (BACIL PUMILUS): 14.1% | % activity with respect to the base corrected by molecular weight (BACIL PUMILUS): 25%

CCC(C)C(C)C(Nc1ncc(Cc2cc(OC)c(OC)c(OC)c2)c(N)n1)S(=O)(=O)O (stereo not shown) [Example 6, N2 (2,3-Dimethyl) Pentane Sulfonic Acid of 2,4-Diamino 5-(3,4,5-Trimethoxy Benzyl) Pyrimidine]
% activity with respect to the base (COLI [1]): 18.8% | % activity with respect to the base corrected by molecular weight (COLI [1]): 32% | % activity with respect to the base (COLI [2]): 15.75% | % activity to the base corrected by molecular weight (COLI [2]): 27% | % activity with respect to the base (BACIL PUMILUS): 16.6% | % activity with respect to the base corrected by molecular weight (BACIL PUMILUS): 28%

COc1cc(Cc2cnc(NC(c3cc(OC)c(OC)c(OC)c3)S(=O)(=O)O)nc2N)cc(OC)c1OC (stereo not shown) [Example 17, N2 (3,4,5-Trimethoxy Phenyl) Methane Sulfonic Acid 2,4-Diamino 5-(3,4,5-Trimethoxy Benzyl) Pyrimidine]
% activity with respect to the base (COLI [1]): 34.8% | % activity with respect to the base corrected by molecular weight (COLI [1]): 68% | % activity with respect to the base (COLI [2]): 24.3% | % activity to the base corrected by molecular weight (COLI [2]): 48% | % activity with respect to the base (BACIL PUMILUS): 42.7% | % activity with respect to the base corrected by molecular weight (BACIL PUMILUS): 84%

COc1cc(Cc2cnc(NC(C(C)C)S(=O)(=O)O)nc2N)cc(OC)c1OC (stereo not shown) [Example 4, N2 (2-Methyl) Propane Sulfonic Acid of 2,4-Diamino 5-(3,4,5-Trimethoxy Benzyl) Pyrimidine]
% activity with respect to the base (COLI [1]): 12.9% | % activity with respect to the base corrected by molecular weight (COLI [1]): 20% | % activity with respect to the base (COLI [2]): 14.1% | % activity to the base corrected by molecular weight (COLI [2]): 22% | % activity with respect to the base (BACIL PUMILUS): 11.8% | % activity with respect to the base corrected by molecular weight (BACIL PUMILUS): 18%

COc1cc(Cc2cnc(NC(c3ccccc3[N+](=O)[O-])S(=O)(=O)O)nc2N)cc(OC)c1OC (stereo not shown) [Example 14, N2 (2-Nitro Phenyl) Methane Sulfonic Acid of 2,4-Diamino 5-(3,4,5-Trimethoxy Benzyl) Pyrimidine]
% activity with respect to the base (COLI [1]): 10.6% | % activity with respect to the base corrected by molecular weight (COLI [1]): 19% | % activity with respect to the base (COLI [2]): 13.9% | % activity to the base corrected by molecular weight (COLI [2]): 25% | % activity with respect to the base (BACIL PUMILUS): 11.0% | % activity with respect to the base corrected by molecular weight (BACIL PUMILUS): 20%

COc1cc(Cc2cnc(NC(c3ccc4c(c3)OCO4)S(=O)(=O)O)nc2N)cc(OC)c1OC (stereo not shown) [Example 18, N2 (3,4-Dioxy Methylene Phenyl) Methane Sulfonic Acid of 2,4-Diamino 5-(3,4,5-Trimethoxy Benzyl) Pyrimidine]
LD50 (in vivo; po, read-out: LD 50 by mouth): > 12000 mg/kg | % activity with respect to the base (COLI [1]): 27% | % activity with respect to the base corrected by molecular weight (COLI [1]): 48% | % activity with respect to the base (COLI [2]): 14.85% | % activity to the base corrected by molecular weight (COLI [2]): 26% | % activity with respect to the base (BACIL PUMILUS): 21.4% | % activity with respect to the base corrected by molecular weight (BACIL PUMILUS): 38%

CCC(CC)C(Nc1ncc(Cc2cc(OC)c(OC)c(OC)c2)c(N)n1)S(=O)(=O)O (stereo not shown) [Example 7, N2 (2-Ethyl) Butane Sulfonic Acid of 2,4-Diamino 5-(3,4,5-Trimethoxy Benzyl) Pyrimidine]
% activity with respect to the base (COLI [1]): 14% | % activity with respect to the base corrected by molecular weight (COLI [1]): 23% | % activity with respect to the base (COLI [2]): 15.5% | % activity to the base corrected by molecular weight (COLI [2]): 25% | % activity with respect to the base (BACIL PUMILUS): 14% | % activity with respect to the base corrected by molecular weight (BACIL PUMILUS): 23%

COc1cc(Cc2cnc(NCS(=O)(=O)O)nc2N)cc(OC)c1OC [Example 1, N2 Methane Sulfonic Acid of 2,4-Diamino 5-(3,4,5-TrimethoxyBenzyl) Pyrimidine]
% activity with respect to the base (COLI [1]): 17.1% | % activity with respect to the base corrected by molecular weight (COLI [1]): 24% | % activity with respect to the base (COLI [2]): 0.3% | % activity to the base corrected by molecular weight (COLI [2]): 0.4% | % activity with respect to the base (BACIL PUMILUS): 0.1%

COc1cc(Cc2cnc(NC(c3ccccc3O)S(=O)(=O)O)nc2N)cc(OC)c1OC (stereo not shown) [Example 25e, N2 (2-HYDROXY) PHENYL METHANE SULFONIC ACID OF 5-(3,4,5-TRIMETHOXY BENZYL) 2,4-DIAMINO PYRIMIDINE]
% activity with respect to the base (COLI [1]): 36.6% | % activity with respect to the base corrected by molecular weight (COLI [1]): 74% | % activity with respect to the base (COLI [2]): 45.8% | % activity to the base corrected by molecular weight (COLI [2]): 93% | % activity with respect to the base (BACIL PUMILUS): 75.8% | % activity with respect to the base corrected by molecular weight (BACIL PUMILUS): 154%

COc1cc(Cc2cnc(NC(c3ccccc3)S(=O)(=O)O)nc2N)cc(OC)c1OC (stereo not shown) [Example 8, N2 Phenyl Methane Sulfonic Acid of 2,4-Diamino 5-(3,4,5-Trimethoxy Benzyl) Pyrimidine]
% activity with respect to the base (COLI [1]): 13.3% | % activity with respect to the base corrected by molecular weight (COLI [1]): 21% | % activity with respect to the base (COLI [2]): 10.2% | % activity to the base corrected by molecular weight (COLI [2]): 16.4% | % activity with respect to the base (BACIL PUMILUS): 18.4% | % activity with respect to the base corrected by molecular weight (BACIL PUMILUS): 26%
